Here are results for 14 compounds from US3951955A, “Penicillins substituted with heterocyclic groups” (Sumitomo Chemical Company, Limited, priority 1970, dated 1976).

Common to all, as to test: minimal inhibitory concentration, agar dilution method (in vitro)
Holding throughout (format): cell-based
Background: In agar dilution the substance is mixed into plates at graded concentrations.

Experiment [1] concerns Escherichia coli NIHJ. An excerpt: (§1) When determined according to the agar dilution method, the penicillins [I] afford the minimal inhibitory concentrations as shown in the following Table 1: […]
The test system of experiment [2] is Klebsiella pneumoniae 602.
Text: as §1

Experiment [3] deals with Proteus miravilis 2425.
Text: as §1

The subject of experiment [4] is Pseudomonas aeruginosa 104.
Text: as §1

The test system of experiment [5] is Staphylococcus aureus 209P.
Text: as §1

Converted amounts (≈) assume the structure as drawn. Structures can show the parent of a compound that is named as a salt.

Usually MIC stands for the least concentration at which growth counts as inhibited. Lower therefore signals inhibition by little substance. With `CCNc1ccc2ncc(C(=O)NC(C(=O)NC3C(=O)N4C3SC(C)(C)C4C(=O)O)c3ccccc3)c(O)c2n1` (stereo not shown) [Example 41], the MIC is 3.13 µg/mL (≈ 5.54 µM) in experiment [1]; 6.25 µg/mL (≈ 11.1 µM) in experiment [2]; 6.25 µg/mL (≈ 11.1 µM) in experiment [3]; 6.25 µg/mL (≈ 11.1 µM) in experiment [4]; 0.78 µg/mL (≈ 1.38 µM) in experiment [5].

`Cc1ccc2c(O)c(C(=O)N[C@@H](C(=O)N[C@@H]3C(=O)N4[C@@H]3SC(C)(C)[C@@H]4C(=O)O)c3ccccc3)cnc2n1` [Example 4, D-(-)-α-(7-methyl-4-hydroxy-1,8-naphthyridine-3-carbonamido)-benzylpenicillin potassium salt]: the MIC in experiment [1] came out at 12.5 µg/mL; in experiment [3], 6.25 µg/mL; in experiment [4], 6.25 µg/mL; in experiment [5] it was 0.78 µg/mL.

As to `Cc1ccnc2c(O)c(C(=O)NC(C(=O)NC3C(=O)N4C3SC(C)(C)C4C(=O)O)c3ccccc3)cnc12` (stereo not shown) [Example 34], the minimum inhibitory concentration (MIC) was 3.13 µg/mL (≈ 5.84 µM) in experiment [1]; 6.25 µg/mL (≈ 11.7 µM) in experiment [2]; 3.13 µg/mL (≈ 5.84 µM) in experiment [3]; 3.13 µg/mL (≈ 5.84 µM) in experiment [4]; 1.56 µg/mL (≈ 2.91 µM) in experiment [5].

As to `CN(C)c1ccc2ncc(C(=O)NC(C(=O)NC3C(=O)N4C3SC(C)(C)C4C(=O)O)c3cccs3)c(O)c2n1` (stereo not shown) [Example 38], the MIC in experiment [1] came out at 1.56 µg/mL (≈ 2.73 µM); in experiment [2], 1.56 µg/mL (≈ 2.73 µM); in experiment [3], 1.56 µg/mL (≈ 2.73 µM); in experiment [4] it was 6.25 µg/mL (≈ 11 µM); in experiment [5], 0.78 µg/mL (≈ 1.37 µM).

Turning to `CC1(C)S[C@@H]2[C@H](NC(=O)C(NC(=O)c3cnc4cc5c(cc4c3S)OCO5)c3ccccc3)C(=O)N2[C@H]1C(=O)O` (stereo partly shown) [Example 9], the MIC stood at 6.25 µg/mL (≈ 10.8 µM) in experiment [1], 3.13 µg/mL (≈ 5.39 µM) in experiment [3], 3.13 µg/mL (≈ 5.39 µM) in experiment [4] and 0.2 µg/mL (≈ 0.344 µM) in experiment [5].

For the compound `Cc1nc2cc3c(cc2c(O)c1C(=O)N[C@@H](C(=O)N[C@@H]1C(=O)N2[C@@H]1SC(C)(C)[C@@H]2C(=O)O)c1ccccc1)OCO3` [Example 7, D-(-)-α-(2-methyl-6,7-methylenedioxy-4-hydroxyquinoline-3-carbonamido)-benzylpenicillin potassium salt], the MIC came to 12.5 µg/mL in experiment [1], 6.25 µg/mL in experiment [3], 12.5 µg/mL in experiment [4] and 0.2 µg/mL in experiment [5].

For `COc1ccc2ncc(C(=O)NC(C(=O)N[C@@H]3C(=O)N4[C@@H]3SC(C)(C)[C@@H]4C(=O)O)c3ccccc3)c(O)c2c1` (stereo partly shown) [Example 19], the MIC in experiment [1] came to 6.25 µg/mL (≈ 11.4 µM); in experiment [2], 0.78 µg/mL (≈ 1.42 µM); in experiment [3] it was 1.56 µg/mL (≈ 2.83 µM); in experiment [4] it was 6.25 µg/mL (≈ 11.4 µM); in experiment [5], 0.39 µg/mL (≈ 0.708 µM).

Take `CN(C)c1ncc2ncc(C(=O)NC(C(=O)NC3C(=O)N4C3SC(C)(C)C4C(=O)O)c3ccccc3)c(O)c2n1` (stereo not shown) [Example 51]: the MIC was 0.78 µg/mL (≈ 1.38 µM) in experiment [1]; 0.78 µg/mL (≈ 1.38 µM) in experiment [2]; 1.56 µg/mL (≈ 2.76 µM) in experiment [3]; 3.13 µg/mL (≈ 5.53 µM) in experiment [4]; 0.78 µg/mL (≈ 1.38 µM) in experiment [5].

For `CCOC(=O)Oc1c(C(=O)NC(C(=O)N[C@@H]2C(=O)N3[C@@H]2SC(C)(C)[C@@H]3C(=O)O)c2ccccc2)cnc2ccc(NC(=O)OCc3ccccc3)cc12` (stereo partly shown) [Example 24], the MIC in experiment [1] stood at 12.5 µg/mL (≈ 16.9 µM); in experiment [2] it was 1.56 µg/mL (≈ 2.1 µM); in experiment [3], 12.5 µg/mL (≈ 16.9 µM); in experiment [4], 12.5 µg/mL (≈ 16.9 µM); in experiment [5], 0.39 µg/mL (≈ 0.526 µM).

With `COc1nc(OC)c2ncc(C(=O)NC(C(=O)NC3C(=O)N4C3SC(C)(C)C4C(=O)O)c3ccccc3)c(O)c2n1` (stereo not shown) [Example 54], the MIC in experiment [1] is 6.25 µg/mL (≈ 10.7 µM); in experiment [2] it was 3.13 µg/mL (≈ 5.37 µM); in experiment [3] it was 3.13 µg/mL (≈ 5.37 µM); in experiment [4], 6.25 µg/mL (≈ 10.7 µM); in experiment [5], 1.56 µg/mL (≈ 2.68 µM).

As for `CC1(C)S[C@@H]2[C@H](NC(=O)C(NC(=O)c3cnc4cccnc4c3O)c3ccccc3)C(=O)N2[C@H]1C(=O)O` (stereo partly shown) [Example 27], the minimum inhibitory concentration (MIC) in experiment [1] is 1.56 µg/mL (≈ 2.99 µM); in experiment [2] it was 6.25 µg/mL (≈ 12 µM); in experiment [3], 3.13 µg/mL (≈ 6 µM); in experiment [4] it was 3.13 µg/mL (≈ 6 µM); in experiment [5] it was 0.78 µg/mL (≈ 1.5 µM).

`CC(=O)CC(=O)Nc1ccc2ncc(C(=O)NC(C(=O)NC3C(=O)N4C3SC(C)(C)C4C(=O)O)c3ccccc3)c(O)c2n1` (stereo not shown) [Example 31]: the MIC in experiment [1] was 3.13 µg/mL (≈ 5.04 µM); in experiment [2], 6.25 µg/mL (≈ 10.1 µM); in experiment [3] it was 6.25 µg/mL (≈ 10.1 µM); in experiment [4] it was 6.25 µg/mL (≈ 10.1 µM); in experiment [5], 0.78 µg/mL (≈ 1.26 µM).

Regarding `CC1(C)SC2C(NC(=O)C(NC(=O)c3cnc4cccnc4c3O)c3cccs3)C(=O)N2C1C(=O)O` (stereo not shown) [Example 39], the minimum inhibitory concentration (MIC) in experiment [1] turned out to be 1.56 µg/mL (≈ 2.96 µM); in experiment [2], 3.13 µg/mL (≈ 5.93 µM); in experiment [3], 3.13 µg/mL (≈ 5.93 µM); in experiment [4] it was 6.25 µg/mL (≈ 11.8 µM); in experiment [5] it was 0.78 µg/mL (≈ 1.48 µM).

In the case of `CC1(C)SC2C(NC(=O)C(NC(=O)c3cnc4ccncc4c3O)c3ccccc3)C(=O)N2C1C(=O)O` (stereo not shown) [Example 43], the MIC in experiment [1] is 12.5 µg/mL (≈ 24 µM); in experiment [2], 6.25 µg/mL (≈ 12 µM); in experiment [3] it was 12.5 µg/mL (≈ 24 µM); in experiment [4], 6.25 µg/mL (≈ 12 µM); in experiment [5], 0.78 µg/mL (≈ 1.5 µM).
